The source of these data is patent US20250213471A1, “PEMETREXED DISODIUM LIQUID COMPOSITION, PREPARATION METHOD THEREFOR AND USE THEREOF” (SHANGHAI AURORA BIOTECHNOLOGY CO., LTD., priority 2022, published 2025).

In one series the test system is human plasma protein. In words: Human plasma protein binding rate by equilibrium dialysis. To be noted: positive, 5 μM.
The next series deals with guinea pigs. In words: Active systemic anaphylaxis experiment in guinea pigs. To be noted: first challenge.
[1] abbreviates: positive control group (8 mg/mL, 0.5 mL/guinea pig sensitization, i.v.).

Where “and” joins values, the source holds several entries; their conditions need not be identical. Equal values may be shown once.

Protocol for guinea pigs: The administration doses were 20 m/kg and 40 mg/kg and were about 1.5 and 3 times of the highest clinical intended dose. The day of the first administration was defined as day 1 of the experiment. Sensitization was performed 1 time every other day. 3 consecutive sensitizations were performed (i.e., sensitization on days 1, 3, and 5 of the experiment). On day 14 and day 21 after the last sensitization (i.e., on day 19 and day 26 of the experiment), the guinea pigs were challenged by intravenous injection at 2 times the dose of the sensitization dose, and the systemic reaction and death after the challenge were observed.

For `CC(C)NCC(O)COc1cccc2ccccc12` (stereo not drawn) [Propranolol], the “Binding rate (%)” value in the series with human plasma protein (human plasma) came to 87.27%. Besides, in the series with human plasma protein, the “Administration side (peak area ratio), Mean” value is 3.774; the “Administration side (peak area ratio), single replicates N = 1-3” value is 3.835 and 3.690 and 3.798; the “Receiving side (peak area ratio), Mean” value is recorded as 0.480; the “Receiving side (peak area ratio), single replicates N = 1-3” value was 0.486 and 0.480 and 0.475. Besides, in the series with human plasma protein, the “T0 h (peak area ratio), Mean” value was 5.286; the “T0 h (peak area ratio), single replicates N = 1-3” value is 5.491 and 5.043 and 5.325; the “T5 h (peak area ratio), Mean” value amounted to 4.896; the “T5 h (peak area ratio), single replicates N = 1-3” value is 4.909 and 4.831 and 4.947. Besides, the “Stability (%)” value with human plasma protein (T5 h vs T0 h) is 92.61%.

B1: Positive control: 8 mg/mL egg white albumin solution, positive control of the anaphylaxis experiment (protein, UniProt P01012 2-386, looked up)
Ovalbumin: GSIGAASMEFCFDVFKELKVHHANENIFYCPIAIMSALAMVYLGAKDSTRTQINKVVRFDKLPGFGDSIEAQCGTSVNVHSSLRDILNQITKPNDVYSFSLASRLYAEERYPILPEYLQCVKELYRGGLEPINFQTAADQARELINSWVESQTNGIIRNVLQPSSVDSQTAMVLVNAIVFKGLWEKAFKDEDTQAMPFRVTEQESKPVQMMYQIGLFRVASMASEKMKILELPFASGTMSMLVLLPDEVSGLEQLESIINFEKLTEWTSSNVMEERKIKVYLPRMKMEEKYNLTSVLMAMGITDVFSSSANLSGISSAESLKISQAVHAAHAEINEAGREVVGSAEAGVDAASVSEEFRADHPFLFCIKHIATNAVLFFGRCVSP
B1: the “Time to death of all guinea pigs after challenge administration” value in the series on guinea pigs (positive control group) is at most 7 min. Besides, in the series on guinea pigs (setting [1]), the “Anaphylaxis Degree of occurrence” value is listed as “extremely positive”; the “Anaphylaxis Incidence (%)” value stood at 100%; the “Number of symptoms of anaphylaxis and occurrence proportion: 0” value was found to be 0; the “Number of symptoms of anaphylaxis and occurrence proportion: 1-4” value was 0. In addition, in the series on guinea pigs (setting [1]), the “Number of symptoms of anaphylaxis and occurrence proportion: 5-10” value amounted to 0; the “Number of symptoms of anaphylaxis and occurrence proportion: 11-19” value is 0; the “Number of symptoms of anaphylaxis and occurrence proportion: 20” value is 6/6.
